{
  "source": "patent US12209079B2",
  "about": "(GENERAL INCORPORATED ASSOCIATION PHARMA VALLEY PROJECT …, priority 2017, dated 2025)",
  "key": {"[1]": {"molecular_target": "T1, IDO in A431 cells (Homo sapiens, UniProt P14902)", "T1 construct": "endogenous in cells; host or cells: A431 cells, IFN-γ stimulated", "T1 sequence (P14902 whole entry)": "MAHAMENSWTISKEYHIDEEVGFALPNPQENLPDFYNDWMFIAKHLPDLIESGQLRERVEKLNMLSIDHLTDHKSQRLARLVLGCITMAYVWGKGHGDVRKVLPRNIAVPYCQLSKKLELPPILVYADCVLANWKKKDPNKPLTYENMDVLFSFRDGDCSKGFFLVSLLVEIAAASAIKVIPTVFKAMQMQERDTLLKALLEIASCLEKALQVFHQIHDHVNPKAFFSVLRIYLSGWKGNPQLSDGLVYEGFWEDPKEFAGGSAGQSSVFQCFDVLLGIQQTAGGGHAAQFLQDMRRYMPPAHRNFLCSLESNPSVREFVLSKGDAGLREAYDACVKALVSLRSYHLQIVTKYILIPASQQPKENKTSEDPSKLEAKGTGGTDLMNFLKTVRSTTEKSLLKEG", "assay": "IDO cell-based assay, kynurenine production in IFN-γ stimulated A431 cells", "conditions": "A-431, 24 h; final concentration of the compound 10 μM; rate relative to culture without compound", "outline": "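A431 cells were cultured 24 h, then preincubated 1 h with compound in medium containing 178 μM L-tryptophan, and stimulated with IFN-γ (diluted to 100 ng/mL before addition) for 24 h. Kynurenine was measured by p-dimethylbenzaldehyde absorbance at 460 nm, background-subtracted, and expressed as % production versus no-compound control.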"}, "[2]": {"tested_on": "subcutaneous CT-26WT syngeneic graft of large intestine cancer", "assay": "Drug efficacy test, combined use of compound 1, 15 or 29 and oxaliplatin, mice with subcutaneous CT-26WT syngeneic graft (Test Example 4)", "type": "in vivo, mouse", "conditions": "40 mg/kg oral twice a day, combined with oxaliplatin 10 mg/kg i.v.; Balb/c mice; FIG. 3", "method": "Drug Efficacy Test on Combined Use of Compound 1, Compound 15 or Compound 29 and Oxaliplatin Using Mice with Subcutaneous CT-26WT Syngeneic Graft of Large Intestine Cancer\n5×10^5 cells of syngeneic large intestine cancer cell line CT26WT were subcutaneously transplanted to each of 6-week-old female Balb/c mice. The mice were divided into 5 groups each involving 6 individuals 10 days later when the average tumor size was 139 mm^3. The oral administration (solvent for oral administration and 40 mg/kg each of compound 1, compound 15 and compound 29 were administered twice a day at a 5-hour interval from days 1 to 5 and days 8 to 12) and intravenous injection (5% glucose solution and 10 mg/kg oxaliplatin were administered once a day on days 1 and 8) of each agent were started. Then, the major axis and minor axis of subcutaneous tumor were measured three times a week using calipers, and a mean and standard error of the mean of the ratios of the calculated volumes to the volumes at the administration start day in each group were plotted. The calculation expression was Volume (mm^3)=[Width^2 (mm^2)×Length (mm)]/2. The solvent group, compound 1 and compound 15 were each dissolved in a solvent for oral administration of DMSO:PEG400:PBS=10:40:150, and compound 29 was dissolved in a solvent for oral administration of DMSO:PEG400:PBS=20:80:50.\n∘: the solvent for oral administration and the 5% glucose solution, •: the solvent for oral administration and oxaliplatin, ▴: compound 1 and oxaliplatin, ▪: compound 15 and oxaliplatin, and x: compound 29 and oxaliplatin."}, "[3]": {"tested_on": "subcutaneous CT-26WT syngeneic graft of large intestine cancer", "assay": "Drug efficacy test, combined use of IDO/TDO inhibitor and oxaliplatin, mice with subcutaneous CT-26WT syngeneic graft (Test Example 5)", "type": "in vivo, mouse", "conditions": "40 mg/kg oral twice a day in 0.5% methyl cellulose, combined with oxaliplatin 10 mg/kg i.v.; Balb/c mice; FIG. 4", "method": "Drug Efficacy Test on Combined Use of IDO/TDO Inhibitor and Oxaliplatin Using Mice with a Subcutaneous CT-26WT Syngeneic Graft of Large Intestine Cancer\n5×10^5 cells of syngeneic large intestine cancer cell line CT26WT were subcutaneously transplanted to each of 6-week-old female Balb/c mice. The mice were divided into groups each involving 6 individuals 10 days later within a tumor size range of 41-427 mm^3. The oral administration (solvent for oral administration and 40 mg/kg each of epacadostat and compounds 37, 31, 7, 15, 1, 50, 52, 76, 95, 33, 49, 2, 10, 36, 103, 38 and 29 were administered twice a day at a 5-hour interval from days 1 to 5 and days 8 to 12) and intravenous injection (5% glucose solution and 10 mg/kg oxaliplatin were administered once a day on days 1 and 8) of each agent were started. Then, the major axis and minor axis of subcutaneous tumor were measured three times a week using calipers, and a mean and standard error of the mean of the ratios of the calculated volumes to the volumes at the administration start day in each group were plotted. The calculation expression was Volume (mm^3)=[[…]×Length (mm)]/2. The agent for oral administration was suspended in 0.5% methyl cellulose as a solvent for oral administration. The results are shown in FIG. 4 (if a plurality of experiments were conducted for the same agent, the results were combined).\n• with the solid line: the solvent for oral administration and the 5% glucose solution, ▪ with the solid line: compound 37 and oxaliplatin, ▴ with the solid line: epacadostat and oxaliplatin, X with the solid line: compound 31 and oxaliplatin, ∘ with the solid line: the solvent for oral administration and oxaliplatin, □ with the solid line: compound 7 and oxaliplatin, Δ with the solid line: compound 15 and oxaliplatin, X with the solid line: compound 1 and oxaliplatin, • with the broken line: compound 50 and oxaliplatin, ▪ with the broken line: compound 52 and oxaliplatin, ▴ with the broken line: compound 76 and oxaliplatin, X with the broken line: compound 95 and oxaliplatin, ∘ with the broken line: compound 33 and oxaliplatin, □ with the broken line: compound 49 and oxaliplatin, Δ with the broken line: compound 2 and oxaliplatin, + with the solid line: compound 10 and oxaliplatin, rectangle with the solid line: compound 36 and oxaliplatin, • with the dotted line: compound 103 and oxaliplatin, ▪ with the dotted line: compound 38 and oxaliplatin, and ▴ with the dotted line: compound 29 and oxaliplatin."}},
  "data": [
    {"smiles": "Cl.Cl.N=C(N)SCc1ccccc1CSC(=N)N", "note": "[Compound 1, 1,2-phenylenebis(methylene) dicarbamimidothioate dihydrochloride]", "values": [
      {"measurement": "remaining activity at 10 µM", "setting": "[1]", "result": 11, "unit": "%"},
      {"measurement": "tumor growth (ratio of tumor volume to start day)", "setting": "[2]", "result": "can suppress tumor growth"},
      {"measurement": "tumor growth (ratio of tumor volume to start day)", "setting": "[3]", "result": "can suppress tumor growth"}
    ]},
    {"smiles": "Br.Br.N=C(N)SCc1ccc(F)cc1CSC(=N)N", "note": "[Compound 2, (4-fluoro-1,2-phenylene)bis(methylene) dicarbamimidothioate dihydrobromide]", "values": [
      {"measurement": "remaining activity at 10 µM", "setting": "[1]", "result": 7, "unit": "%"},
      {"measurement": "tumor growth (ratio of tumor volume to start day)", "setting": "[3]", "result": "can suppress tumor growth"}
    ]},
    {"smiles": "Br.Br.N=C(N)SCc1ccc(Cl)cc1CSC(=N)N", "note": "[Compound 7, (4-chloro-1,2-phenylene)bis(methylene) dicarbamimidothioate dihydrobromide]", "values": [
      {"measurement": "remaining activity at 10 µM", "setting": "[1]", "result": 0, "unit": "%"},
      {"measurement": "tumor growth (ratio of tumor volume to start day)", "setting": "[3]", "result": "can suppress tumor growth"}
    ]},
    {"smiles": "Br.Br.N=C(N)SCc1ccc(Br)cc1CSC(=N)N", "note": "[Compound 10, (4-bromo-1,2-phenylene)bis(methylene) dicarbamimidothioate dihydrobromide]", "values": [
      {"measurement": "remaining activity at 10 µM", "setting": "[1]", "result": -1, "unit": "%"},
      {"measurement": "tumor growth (ratio of tumor volume to start day)", "setting": "[3]", "result": "can suppress tumor growth"}
    ]},
    {"smiles": "Br.Br.N=C(N)SCc1cscc1CSC(=N)N", "note": "[Compound 15, thiophene-3,4-diylbis(methylene) dicarbamimidothioate dihydrobromide]", "values": [
      {"measurement": "remaining activity at 10 µM", "setting": "[1]", "result": 12, "unit": "%"},
      {"measurement": "tumor growth (ratio of tumor volume to start day)", "setting": "[2]", "result": "can suppress tumor growth"},
      {"measurement": "tumor growth (ratio of tumor volume to start day)", "setting": "[3]", "result": "can suppress tumor growth"}
    ]},
    {"smiles": "c1ccc(CSC2=NCN(CC3CCCCC3)CN2)c(CSC2=NCN(CC3CCCCC3)CN2)c1", "note": "[Compound 29, 1,2-bis(((5-(cyclohexylmethyl)-1,4,5,6-tetrahydro-1,3,5-triazin-2-yl)thio)methyl)benzene]", "values": [
      {"measurement": "remaining activity at 10 µM", "setting": "[1]", "result": 10, "unit": "%"},
      {"measurement": "tumor growth (ratio of tumor volume to start day)", "setting": "[2]", "result": "can suppress tumor growth"},
      {"measurement": "tumor growth (ratio of tumor volume to start day)", "setting": "[3]", "result": "can suppress tumor growth"}
    ]},
    {"smiles": "Br.Br.N=C(N)SCc1ccsc1CSC(=N)N", "note": "[Compound 31, thiophene-2,3-diylbis(methylene) dicarbamimidothioate dihydrobromide]", "values": [
      {"measurement": "remaining activity at 10 µM", "setting": "[1]", "result": 13, "unit": "%"},
      {"measurement": "tumor growth (ratio of tumor volume to start day)", "setting": "[3]", "result": "can suppress tumor growth"}
    ]},
    {"smiles": "Cl.Cl.c1ccc(CCN2CN=C(SCc3cscc3CSC3=NCN(CCc4ccccc4)CN3)NC2)cc1", "note": "[Compound 33, 3,4-Bis{[(5-phenethyl-1,4,5,6-tetrahydro-1,3,5-triazin-2-yl)thio]methyl}thiophene dihydrochloride]", "values": [
      {"measurement": "remaining activity at 10 µM", "setting": "[1]", "result": 3, "unit": "%"},
      {"measurement": "tumor growth (ratio of tumor volume to start day)", "setting": "[3]", "result": "can suppress tumor growth"}
    ]},
    {"smiles": "Clc1cc(CSC2=NCN(CCc3ccccc3)CN2)c(CSC2=NCN(CCc3ccccc3)CN2)cc1Cl", "note": "[Compound 37, 6,6′-(((4,5-Dichloro-1,2-phenylene)bis(methylene))bis(sulfanediyl))bis(3-phenethyl-1,2,3,4-tetrahydro-1,3,5-triazine)]", "values": [
      {"measurement": "remaining activity at 10 µM", "setting": "[1]", "result": 1, "unit": "%"},
      {"measurement": "tumor growth (ratio of tumor volume to start day)", "setting": "[3]", "result": "can suppress tumor growth"}
    ]},
    {"smiles": "N/C(=N\\c1ccc(Br)cc1)SCc1ccc(Br)cc1CS/C(N)=N/c1ccc(Br)cc1", "note": "[Compound 49, (4-Bromo-1,2-phenylene)bis(methylene) (E,E)-bis(N′-(4-bromophenyl)carbamimidothioate)]", "values": [
      {"measurement": "remaining activity at 10 µM", "setting": "[1]", "result": 4, "unit": "%"},
      {"measurement": "tumor growth (ratio of tumor volume to start day)", "setting": "[3]", "result": "can suppress tumor growth"}
    ]},
    {"smiles": "Clc1cc(CSC2=NCN(CC3CCCCC3)CN2)c(CSC2=NCN(CC3CCCCC3)CN2)cc1Cl", "note": "[Compound 50, 6,6′-(((4,5-Dichloro-1,2-phenylene)bis(methylene))bis(sulfanediyl))bis(3-(cyclohexylmethyl)-1,2,3,4-tetrahydro-1,3,5-triazine)]", "values": [
      {"measurement": "remaining activity at 10 µM", "setting": "[1]", "result": 4, "unit": "%"},
      {"measurement": "tumor growth (ratio of tumor volume to start day)", "setting": "[3]", "result": "can suppress tumor growth"}
    ]},
    {"smiles": "Brc1ccc(CSC2=NCN(CC3CCCCC3)CN2)c(CSC2=NCN(CC3CCCCC3)CN2)c1", "note": "[Compound 52, 6,6′-(((4-Bromo-1,2-phenylene)bis(methylene))bis(sulfanediyl))bis(3-(cyclohexylmethyl)-1,2,3,4-tetrahydro-1,3,5-triazine)]", "values": [
      {"measurement": "remaining activity at 10 µM", "setting": "[1]", "result": 1, "unit": "%"},
      {"measurement": "tumor growth (ratio of tumor volume to start day)", "setting": "[3]", "result": "can suppress tumor growth"}
    ]},
    {"smiles": "Br.N#Cc1ccc(CNC(=O)c2ccc(Br)cc2CSC(=N)N)cc1", "note": "[Compound 76, 5-Bromo-2-((4-cyanobenzyl)carbamoyl)benzyl carbamimidothioate hydrobromide]", "values": [
      {"measurement": "remaining activity at 10 µM", "setting": "[1]", "result": 82, "unit": "%"},
      {"measurement": "tumor growth (ratio of tumor volume to start day)", "setting": "[3]", "result": "can suppress tumor growth"}
    ]},
    {"smiles": "Br.Br.N/C(=N\\c1ccc(F)cc1F)SCc1ccccc1CS/C(N)=N/c1ccc(F)cc1F", "note": "[Compound 95, 1,2-Phenylenebis(methylene) (E,E)-bis(N-(2,4-difluorophenyl)carbamimidothioate)dihydrobromide]", "values": [
      {"measurement": "remaining activity at 10 µM", "setting": "[1]", "result": 2, "unit": "%"},
      {"measurement": "tumor growth (ratio of tumor volume to start day)", "setting": "[3]", "result": "can suppress tumor growth"}
    ]},
    {"smiles": "Br.N#Cc1ccc(CNC(=O)c2cc(Br)ccc2CSC(=N)N)cc1", "note": "[Compound 103, 4-Bromo-2-((4-cyanobenzyl)carbamoyl)benzyl carbamimidothioate hydrobromide]", "values": [
      {"measurement": "remaining activity at 10 µM", "setting": "[1]", "result": 3, "unit": "%"},
      {"measurement": "tumor growth (ratio of tumor volume to start day)", "setting": "[3]", "result": "can suppress tumor growth"}
    ]}
  ]
}
